Several values for one entry are separate records, joined by “and”; a condition that tells them apart may be missing. Identical values can stand only once.
Assay: Stability of OSIM in rat plasma QC samples (bench-top, autosampler, freeze-thaw, long-term)
Assay type: in vitro ADME
Conditions: for B-LQC RE, AVERAGE / B-LQC measured concentration, AVERAGE / B-LQC RE / B-LQC measured concentration: nominal 5.02 ng/ml; for B-LQC RE, AVERAGE / B-LQC measured concentration, AVERAGE / B-MQC RE, AVERAGE / B-MQC measured concentration, AVERAGE / B-HQC RE, AVERAGE / B-HQC measured concentration, AVERAGE: average of 4; for B-LQC RE / B-LQC measured concentration / B-MQC RE / B-MQC measured concentration / B-HQC RE / B-HQC measured concentration: single replicates; for B-MQC RE, AVERAGE / B-MQC measured concentration, AVERAGE / B-MQC RE / B-MQC measured concentration: nominal 200.8 ng/ml; for B-HQC RE, AVERAGE / B-HQC measured concentration, AVERAGE / B-HQC RE / B-HQC measured concentration: nominal 401.6 ng/ml; for Relative stability: n=4
Method: Bench-top stability was tested by placing the pretreatment samples at room temperature ([…]) for 6 h, autosampler stability was assessed by placing the prepared sample in the injector for 24 h, freeze-thaw stability was determined to be adequate over at least three cycles (from −30 °C to 25 °C), and long-term stability was assessed to be at least one month before sample preparation (at −30 °C for 30 d). For all stability results, the average %RE of OSIM ranged from −11.04% to 7.48% across the three QC concentrations, with the %CV less than 6.42% (Table S4).

C=CC(=O)Nc1cc(Nc2nccc(-c3cn(C)c4ccccc34)n2)c(OC)cc1N(C)CCN(C)C [OSIM, Osimertinib]
B-LQC RE, AVERAGE (-30℃(30 day)): -11.04%
B-LQC measured concentration, AVERAGE (-30℃(30 day)): 4.47 ng/mL
B-LQC RE (-30℃(30 day)): -11.88% and -13.96% and -8.90% and -9.43%
B-LQC measured concentration (-30℃(30 day)): 4.42 ng/mL and 4.32 ng/mL and 4.57 ng/mL and 4.55 ng/mL
B-MQC RE, AVERAGE (-30℃(30 day)): -0.87%
B-MQC measured concentration, AVERAGE (-30℃(30 day)): 199.05 ng/mL
B-MQC RE (-30℃(30 day)): 4.20% and -2.59% and -1.56% and -3.53%
B-MQC measured concentration (-30℃(30 day)): 209.23 ng/mL and 195.60 ng/mL and 197.67 ng/mL and 193.72 ng/mL
B-HQC RE, AVERAGE (-30℃(30 day)): -1.09%
B-HQC measured concentration, AVERAGE (-30℃(30 day)): 397.22 ng/mL
B-HQC RE (-30℃(30 day)): -0.61% and 0.80% and -5.35%
B-HQC measured concentration (-30℃(30 day)): 399.15 ng/mL and 404.80 ng/mL and 380.13 ng/mL
B-LQC RE, AVERAGE (AUTO(24h)): -6.71%
B-LQC measured concentration, AVERAGE (AUTO(24h)): 4.68 ng/mL
B-LQC RE (AUTO(24h)): -12.78% and -6.93% and -1.98% and -5.16%
B-LQC measured concentration (AUTO(24h)): 4.38 ng/mL and 4.67 ng/mL and 4.92 ng/mL and 4.76 ng/mL
B-MQC RE, AVERAGE (AUTO(24h)): -1.60%
B-MQC measured concentration, AVERAGE (AUTO(24h)): 197.59 ng/mL
B-MQC RE (AUTO(24h)): -1.66% and 4.91% and -1.78% and -7.87%
B-MQC measured concentration (AUTO(24h)): 197.46 ng/mL and 210.66 ng/mL and 197.22 ng/mL and 184.99 ng/mL
B-HQC RE, AVERAGE (AUTO(24h)): -4.24%
B-HQC measured concentration, AVERAGE (AUTO(24h)): 384.55 ng/mL
B-HQC RE (AUTO(24h)): -2.81% and -5.55% and -7.95% and -0.66%
B-HQC measured concentration (AUTO(24h)): 390.30 ng/mL and 379.32 ng/mL and 369.66 ng/mL and 398.95 ng/mL
B-LQC RE, AVERAGE (ROOM(6h)): 7.48%
B-LQC measured concentration, AVERAGE (ROOM(6h)): 5.40 ng/mL
B-LQC RE (ROOM(6h)): 11.63% and 8.45% and 4.43% and 5.39%
B-LQC measured concentration (ROOM(6h)): 5.60 ng/mL and 5.44 ng/mL and 5.24 ng/mL and 5.29 ng/mL
B-MQC RE, AVERAGE (ROOM(6h)): 5.16%
B-MQC measured concentration, AVERAGE (ROOM(6h)): 211.16 ng/mL
B-MQC RE (ROOM(6h)): 7.61% and 11.08% and 3.27% and -1.32%
B-MQC measured concentration (ROOM(6h)): 216.07 ng/mL and 223.04 ng/mL and 207.36 ng/mL and 198.15 ng/mL
B-HQC RE, AVERAGE (ROOM(6h)): -3.51%
B-HQC measured concentration, AVERAGE (ROOM(6h)): 387.49 ng/mL
B-HQC RE (ROOM(6h)): -6.10% and -7.91% and 2.69% and -2.75%
B-HQC measured concentration (ROOM(6h)): 377.12 ng/mL and 369.84 ng/mL and 412.42 ng/mL and 390.57 ng/mL
B-LQC RE, AVERAGE (after RTF(-30℃30 day)): 6.03%
B-LQC measured concentration, AVERAGE (after RTF(-30℃30 day)): 5.32 ng/mL
B-LQC RE (after RTF(-30℃30 day)): -1.95% and 2.78% and 10.68% and 12.61%
B-LQC measured concentration (after RTF(-30℃30 day)): 4.92 ng/mL and 5.16 ng/mL and 5.56 ng/mL and 5.65 ng/mL
B-MQC RE, AVERAGE (after RTF(-30℃30 day)): -2.85%
B-MQC measured concentration, AVERAGE (after RTF(-30℃30 day)): 195.09 ng/mL
B-MQC RE (after RTF(-30℃30 day)): -3.40% and 0.97% and -3.10% and -5.85%
B-MQC measured concentration (after RTF(-30℃30 day)): 193.98 ng/mL and 202.74 ng/mL and 194.57 ng/mL and 189.05 ng/mL
B-HQC RE, AVERAGE (after RTF(-30℃30 day)): -9.46%
B-HQC measured concentration, AVERAGE (after RTF(-30℃30 day)): 363.62 ng/mL
B-HQC RE (after RTF(-30℃30 day)): -9.22% and -10.28% and -11.32% and -7.01%
B-HQC measured concentration (after RTF(-30℃30 day)): 364.57 ng/mL and 360.31 ng/mL and 356.15 ng/mL and 373.44 ng/mL
Relative stability (prepared sample in autosampler for 24 h, range over LQC/MQC/HQC): 94.15-103.09%
Relative stability (rat plasma, long-term at −30 °C for 30 days, range over LQC/MQC/HQC): 88.96-98.91%
Relative stability (rat plasma, room temperature for 6 h, range over LQC/MQC/HQC (5, 200, 400 ng/mL)): 96.49-107.48%
Relative stability (rat plasma, three freeze-thaw cycles (−30 °C to 25 °C), range over LQC/MQC/HQC): 90.54-106.03%

Reference: PMC10423561, “Effects of the CYP3A inhibitors, voriconazole, itraconazole, and fluconazole on the pharmacokinetics of osimertinib in rats” (PeerJ, 2023)
